In patent US11160790B2, “Method of inhibiting Cryptococcus growth using eltrombopag” (priority 2019, dated 2021):

Columns and labels:
most Candida species = test: Microdilution assay, summary for Candida species; assay type: cell-based
Procedure: Cryptococcus and Candida species were cultured in yeast extract-peptone-dextrose (YPD) medium (containing 1% yeast extract, 2% peptone, 2% glucose, and optionally 2% agar for preparation of an agar plate). Aspergillus, Fusarium, and Trichophyton species were cultured on potato dextrose agar (PDA) plate (containing 2% potato infusion, […], and 1.5% agar). A microdilution assay was performed to determine minimum inhibitory concentration (MIC), minimum fungicidal concentration (MFC), and fractional inhibitory concentration (FIC) index (FICI) using RPMI 1640 medium buffered with MOPS. […]
To investigate the inhibitory effects of eltrombopag on the growth of fungi, microdilution assays (based on the CLSI standards M27-A3 and M38-A2) were performed with multiple pathogenic yeasts and filamentous fungi including Cryptococcus, Candida, Aspergillus, Fusarium, and Trichophyton (TABLE 1). […] Thereafter, 3 μL of the fungal culture from each well of the 96-well plates was spotted onto eltrombopag-free YPD (for yeasts) or PDA (for filamentous fungi) agar plates, which were then incubated at 35° C. for 48 hours to examine colony formation Minimum fungicidal concentration (MFC) was determined to be the lowest drug concentration at which no colonies formed. […]

C. neoformans H99 = test: Capsule size assay (India ink); assay type: cell-based, Cryptococcus neoformans; settings: 0.06 mg/L, 37° C., 48 hours, versus no eltrombopag treatment
Procedure: Cryptococcus and Candida species were cultured in yeast extract-peptone-dextrose (YPD) medium (containing 1% yeast extract, 2% peptone, 2% glucose, and optionally 2% agar for preparation of an agar plate). Aspergillus, Fusarium, and Trichophyton species were cultured on potato dextrose agar (PDA) plate (containing 2% potato infusion, […], and 1.5% agar). A microdilution assay was performed to determine minimum inhibitory concentration (MIC), minimum fungicidal concentration (MFC), and fractional inhibitory concentration (FIC) index (FICI) using RPMI 1640 medium buffered with MOPS. Minimal medium (containing 15 mM glucose, 10 mM magnesium sulfate, 29.4 mM potassium dihydrogen phosphate, 13 mM glycine, and 3 μM thiamine hydrochloride; pH 5.5) was used for capsule size assay and melanization assay.
Cryptococcus capsule, the structure attached to the outer surface of the cell wall and mainly composed of polysaccharides, can increase the resistance of Cryptococcus to host immune response (such as phagocytosis by macrophages) and harsh conditions (such as extreme acidity or alkalinity, high CO2 levels, or iron deprivation). To test whether eltrombopag affects capsule formation in Cryptococcus, C. neoformans H99 and C. deuterogattii R265 cells were cultured overnight in YPD media at 30° C. […] Statistical significance for the data sets was determined using a two-tailed t test.

In the case of `CC1=NN(c2ccc(C)c(C)c2)C(=O)/C1=N\Nc1cccc(-c2cccc(C(=O)O)c2)c1O` [eltrombopag], the MIC (most Candida species) is reported as no less than 64 mg/1 and the capsule size (C. neoformans H99) is reported as “capsule size significantly reduced”.
